The values that follow come from PubChem BioAssay (NCI).

Test systems include A549 NSCLC; IGROV1 ovarian; KM12 colon; MDA-N; NCI-H23 lung; NCI-H460 lung; OVCAR-4 ovarian; RPMI-8226 leukemia; SF-268 CNS; SF-295 CNS; SK-OV-3 ovarian; UACC-62 melanoma; HOP-62 NSCLC; HS 578T breast; LOX IMVI melanoma; HL-60(TB) leukemia.
Assay in all cases: NCI-60 cell line screen, 48 h

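Assay format: 96-well plates, 48-hour exposure. TGI marks complete inhibition of growth.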 Some results are limits rather than exact numbers.

`CCCCCCCCCCCCCCCCOCC(CC(F)(F)P(=O)(OCC)OCC)OC(C)=O` (stereo not given): the TGI in the assay on A549 NSCLC came to 24.7 µM; in the assay on IGROV1 ovarian, 21.8 µM; in the assay on KM12 colon, 23.8 µM; with MDA-N, 31.6 µM; in the assay with NCI-H23 lung it was 34.6 µM; with NCI-H460 lung, 26.3 µM. Besides, the TGI in the assay with OVCAR-4 ovarian was 29.3 µM; in the assay on RPMI-8226 leukemia it was more than 100 µM; in the assay with SF-268 CNS, 27.5 µM; in the assay on SF-295 CNS, 24.4 µM; in the assay with SK-OV-3 ovarian it was 35 µM; in the assay with UACC-62 melanoma it was 30.2 µM.
Take `CC(C)OCC1CC(CC(=O)Nc2nncs2)C(=O)O1` (stereo not given): the TGI with A549 NSCLC, with HOP-62 NSCLC, with HS 578T breast, in the assay with IGROV1 ovarian, with KM12 colon and in the assay with LOX IMVI melanoma was more than 100 µM throughout. Besides, the TGI in the assay on MDA-N, in the assay on NCI-H23 lung, with NCI-H460 lung, with OVCAR-4 ovarian, with RPMI-8226 leukemia and in the assay with SF-268 CNS was more than 100 µM each time. The TGI with SF-295 CNS, in the assay with SK-OV-3 ovarian and in the assay on UACC-62 melanoma was more than 100 µM throughout.
As to `CC(C)C1=CC23CCC4C(C)(C(=O)O)CCCC4(C)C2CC1C1C(=O)N(c2ccccc2N2C(=O)C4C5CC6C7(C)CCCC(C)(C(=O)O)C7CCC6(C=C5C(C)C)C4C2=O)C(=O)C13` (stereo not given), the TGI in the assay with A549 NSCLC came out at 38.7 µM; in the assay on HOP-62 NSCLC, 18.9 µM; in the assay on HS 578T breast, 34.1 µM; with KM12 colon, 13.8 µM; in the assay on MDA-N, 19.4 µM; with NCI-H23 lung, 11.6 µM. Moreover, the TGI was 38.8 µM with OVCAR-4 ovarian, more than 100 µM in the assay with RPMI-8226 leukemia and 16.5 µM with SF-268 CNS.
For `CN(C)C(=S)/N=c1\ssc(=S)n1Cc1cccnc1`, the TGI in the assay with A549 NSCLC was more than 100 µM; with HL-60(TB) leukemia, more than 57.8 µM; with HOP-62 NSCLC, more than 100 µM; with HS 578T breast it was more than 100 µM; in the assay on IGROV1 ovarian, more than 100 µM; in the assay on KM12 colon it was 36.2 µM. The TGI in the assay on LOX IMVI melanoma was more than 100 µM; with NCI-H23 lung, more than 69.6 µM; in the assay with NCI-H460 lung it was more than 95.7 µM; in the assay on OVCAR-4 ovarian, more than 100 µM; with RPMI-8226 leukemia it was more than 100 µM; in the assay with SF-268 CNS, more than 100 µM. The results for the TGI in the assay with SF-295 CNS, in the assay on SK-OV-3 ovarian and in the assay on UACC-62 melanoma were 16.8 µM, more than 81.1 µM and more than 67.7 µM, respectively.
Turning to `Cc1ccc(NC2=CC(=O)C(NO)c3ccccc32)cc1` (stereo not given), the TGI stood at 10.6 µM in the assay on A549 NSCLC; 4.73 µM in the assay with HL-60(TB) leukemia; 14.6 µM in the assay on HOP-62 NSCLC; 4.6 µM in the assay on IGROV1 ovarian; 20.2 µM with KM12 colon; 11.7 µM with LOX IMVI melanoma. In addition, the TGI was 6.75 µM with MDA-N; 4.22 µM in the assay with NCI-H23 lung; 13.3 µM in the assay with NCI-H460 lung; 9.71 µM in the assay with OVCAR-4 ovarian; 17.7 µM in the assay with SF-268 CNS; 15.4 µM in the assay with SF-295 CNS. The TGI in the assay on SK-OV-3 ovarian is 46.6 µM; with UACC-62 melanoma it was 4 µM.
For the molecule `CN(C)CCN(C)c1ccc2c(=O)n(CCN(C)C)c(=O)n3c4ccccc4c(=O)c1c23`, the TGI with A549 NSCLC amounted to 22.7 µM; in the assay on HOP-62 NSCLC, 1.47 µM; in the assay with HS 578T breast it was 8.65 µM; in the assay with IGROV1 ovarian it was 8.02 µM; in the assay on KM12 colon, 8.08 µM; in the assay on LOX IMVI melanoma, 5.53 µM. The TGI in the assay with MDA-N was 2.89 µM; in the assay with NCI-H23 lung, 2.23 µM; in the assay with NCI-H460 lung, 2.23 µM; in the assay on OVCAR-4 ovarian, 2.27 µM; with RPMI-8226 leukemia it was 3.32 µM; with SF-268 CNS, 0.559 µM. The TGI was 8.38 µM in the assay with SF-295 CNS, 16.7 µM in the assay on SK-OV-3 ovarian and 2.6 µM with UACC-62 melanoma.
On to `C[C@H](NC(=O)c1ccc(CNC(=O)/C=C/c2cccc(Oc3ccccc3)c2)cc1)c1ccccc1`, for which the TGI in the assay on A549 NSCLC, in the assay on HOP-62 NSCLC, with HS 578T breast, with IGROV1 ovarian, with KM12 colon and in the assay with LOX IMVI melanoma was more than 100 µM throughout. Moreover, the TGI in the assay with MDA-N, with NCI-H23 lung, with NCI-H460 lung, in the assay on OVCAR-4 ovarian, in the assay with RPMI-8226 leukemia and in the assay with SF-268 CNS was more than 100 µM throughout. Besides, the TGI in the assay with SF-295 CNS, in the assay with SK-OV-3 ovarian and with UACC-62 melanoma was more than 100 µM in each case.
With `CCCN(CCCc1ccccc1)CCc1ccc2[nH]c(=S)[nH]c2c1`, the TGI was more than 100 µM in the assay with A549 NSCLC; more than 100 µM in the assay on HOP-62 NSCLC; more than 100 µM in the assay with HS 578T breast; 79.9 µM in the assay with IGROV1 ovarian; more than 100 µM with KM12 colon; more than 100 µM with LOX IMVI melanoma. Besides, the TGI in the assay on MDA-N was 41.7 µM; with NCI-H23 lung, more than 100 µM; in the assay with NCI-H460 lung, 26.1 µM; with OVCAR-4 ovarian, more than 100 µM; with RPMI-8226 leukemia, 39.9 µM; in the assay on SF-268 CNS it was more than 100 µM. The TGI is 26 µM in the assay with SF-295 CNS, more than 100 µM with SK-OV-3 ovarian and 74.4 µM in the assay with UACC-62 melanoma.
For `CN1CCN(c2ncc3c(n2)sc2c(=O)n(-c4ccccc4)cnc23)CC1`, the TGI with A549 NSCLC, in the assay on HOP-62 NSCLC, in the assay with HS 578T breast, with IGROV1 ovarian, with KM12 colon and in the assay with LOX IMVI melanoma was more than 100 µM each time. The TGI in the assay on MDA-N, in the assay on NCI-H23 lung, with NCI-H460 lung, in the assay on OVCAR-4 ovarian, in the assay with RPMI-8226 leukemia and with SF-268 CNS was more than 100 µM in each case. For the same molecule, the TGI in the assay with SF-295 CNS, in the assay with SK-OV-3 ovarian and with UACC-62 melanoma was more than 100 µM throughout.
For `CN(C)CCCNc1ccc([N+](=O)[O-])c2nc3ccccc3c(N)c12`, the TGI in the assay on A549 NSCLC was 2.37 µM; with HOP-62 NSCLC, more than 10 µM; in the assay with HS 578T breast, more than 10 µM; in the assay on IGROV1 ovarian it was 6.47 µM; with KM12 colon it was 1.53 µM; in the assay on LOX IMVI melanoma, 1.63 µM. Moreover, the TGI amounted to 2.18 µM in the assay with MDA-N; 2.78 µM in the assay with NCI-H23 lung; 1.38 µM in the assay with NCI-H460 lung; 0.595 µM in the assay on OVCAR-4 ovarian; 2.14 µM in the assay with RPMI-8226 leukemia; 4.92 µM with SF-268 CNS. Besides, the values for the TGI in the assay on SF-295 CNS, in the assay on SK-OV-3 ovarian and in the assay on UACC-62 melanoma were 1.53 µM, 0.987 µM and more than 10 µM, respectively.
